Experimental data: PubChem BioAssay (NCI)
“And” between values parts separate entries of the source, which are not always exact repeats. Equal entries are not always repeated.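 Assay format: 96-well plates, 48-hour exposure. Abbreviation: GI50, concentration required for 50% inhibition of growth. The concentration for full growth arrest is given as TGI.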

Tests used:
Assay in all cases: NCI tumour cell line growth inhibition, 48 h
[1] = test system: HS 578T breast
[2] = test system: K-562 leukemia
[3] = test system: MDA-MB-231 breast
[4] = test system: MDA-N
[5] = test system: NCI-H522 lung
[6] = test system: OVCAR-4 ovarian
[7] = test system: RXF 393 renal
[8] = test system: SK-MEL-28 melanoma
[9] = test system: SN12C renal
[10] = test system: T-47D breast

Row | SMILES | TGI [1] [µM] | TGI [2] [µM] | TGI [3] [µM] | TGI [4] [µM] | TGI [5] [µM] | TGI [6] [µM] | TGI [7] | TGI [8] | TGI [9] | TGI [10] [µM] | GI50 [1] [µM] | GI50 [2] [µM] | GI50 [3] [µM] | GI50 [7] | GI50 [8] | GI50 [9] | GI50 [10] [µM] | GI50 [5] [µM] | GI50 [6] [µM]
1 | C=C/C(C)=C\CC1[C@](C)(O)CC[C@H]2C(C)(C)C(=O)CC[C@]12C (stereo not given in full) | > 100 | > 100 | > 100 | > 100 | > 100 | > 100 | > 100 µM | > 100 µM | > 100 µM |  |  |  |  |  |  |  |  |  | 
2 | ClCCCc1ccccc1C1=NCCc2ccccc21 | > 100 | > 100 | > 100 |  | > 100 | > 100 | > 100 µM | > 100 µM | > 100 µM | > 100 |  |  |  |  |  |  |  |  | 
3 | CCCCC(=O)c1c(O)nc2sccn2c1=O | > 10 |  | > 10 | > 10 | > 10 | > 10 | > 10 µM | > 10 µM | > 10 µM | > 10 |  |  |  |  |  |  |  |  | 
4 | O=c1[nH]nc(-c2ccccc2)n1/N=C\c1ccccc1 | > 100 | > 100 | > 100 | > 100 | > 100 | > 100 | > 100 µM | > 100 µM | > 100 µM | > 100 |  |  |  |  |  |  |  |  | 
5 | O=[N+]([O-])c1ccc2sc(C=Nc3cnccn3)cc2c1 | 49.5 | 88.6 | > 100 | > 100 | > 100 |  | 33.5 µM | > 100 µM | > 100 µM | 28 |  |  |  |  |  |  |  |  | 
6 | O=C1NC(=O)C(C(CC(=O)c2ccc([N+](=O)[O-])cc2)c2ccccc2)C(=O)N1 (stereo not given) | 31.7 | > 100 | > 100 | > 100 | > 100 | > 100 | 55.8 µM | > 100 µM | > 100 µM | 67 |  |  |  |  |  |  |  |  | 
7 | [Cl][Sn]([c]1ccccc1)([c]1ccccc1)[c]1ccccc1 | 23 | 0.892 | 0.54 |  |  |  | 0.324 µM and 0.0434 µM | 0.414 µM and 0.146 µM and 0.0808 µM | 0.114 µM and 0.0651 µM | 0.412 | 0.378 | 0.302 | 0.216 | 0.161 µM and 0.0196 µM | 0.196 µM and 0.0263 µM and 0.0229 µM | 0.031 µM and 0.0142 µM | 0.171 |  | 
8 | CC(=O)OCC1OC(SC2=N/C(=C\c3ccc(Br)s3)C(=O)N2CN2CCOCC2)C(OC(C)=O)C(OC(C)=O)C1OC(C)=O (stereo not given) | > 100 | 45.7 | > 100 | 47.7 | 23.6 | > 100 |  | 32.9 µM | 32.2 µM | 91.8 |  |  |  |  |  |  |  |  | 
9 | NCCCN(CCCN(C(=O)Nc1ccccc1)c1ccccc1)C(=O)Nc1ccccc1 | > 100 | > 100 | > 100 | > 100 | 43.1 |  | 86.2 µM | 34.1 µM | > 100 µM | 79.3 |  |  |  |  |  |  |  |  | 
10 | O=C(N/N=C/C=C/c1ccc([N+](=O)[O-])o1)c1cc2ccccc2cc1O | > 100 | 9.53 | 8.65 |  | 2.72 | 2.77 | 1.77 µM | 2.4 µM | 18.9 µM | 3.68 | 3.6 | 0.632 | 2.17 | 0.412 µM | 0.697 µM | 2.02 µM | 1.44 | 0.486 | 1.06
11 | O=S(Nc1ccccc1)c1ccc(N2CCOCC2)cc1 (stereo not given) | > 100 | > 100 | > 100 |  | > 100 | > 100 |  | > 100 µM | > 100 µM | 58.9 |  |  |  |  |  |  |  |  | 
12 | COc1cc([C@@H]2c3cc4c(cc3[C@@H](c3c(O)cc(O)c5c3O[C@H](c3ccc(O)c(O)c3)[C@@H](O)C5)[C@H]3COC(=O)[C@H]23)OCO4)cc(OC)c1OC | > 100 | 78.5 | 3.28 |  | > 100 | 3.35 | 3.28 µM | > 100 µM | > 100 µM | 5.16 |  |  |  |  |  |  |  |  | 
13 | CCNCCCn1c2c(c3ccc(Cl)cc3c1=O)C(=O)c1cc(OC)cnc1-2 | 4.31 |  | 3.23 |  | 24.5 | 2.4 | 2.43 µM | 4.54 µM | 2.79 µM | 1.58 | 1.74 |  | 1.5 | 1.03 µM | 1.92 µM | 0.675 µM | 0.161 | 0.263 | 0.542
14 | CCOC(=O)CCC(NC(=O)OCc1ccccc1)C(=O)NC(CCC(=O)OCC)C(=O)NC(CCC(=O)OCC)C(=O)NC(CCC(=O)OCC)C(=O)NC(CCC(=O)OCC)C(=O)NC(CCC(=O)OCC)C(=O)NC(CCC(=O)OCC)C(=O)OCC (stereo not given) |  | > 100 | > 100 | > 100 | > 100 | > 100 |  | > 100 µM | > 100 µM | > 100 |  |  |  |  |  |  |  |  | 
15 | CCOP(=O)(/C=C\n1cc(C)c(=O)[nH]c1=O)OCC |  | > 100 | > 100 | > 100 | > 100 | > 100 | > 100 µM | > 100 µM | > 100 µM | > 100 |  |  |  |  |  |  |  |  | 
16 | CCOC(=O)c1nc2ccc(C(F)(F)F)cc2nc1Oc1cc(OC)c(OC)c(OC)c1 | 73.5 | > 100 | > 100 | > 100 |  | 7.69 | > 100 µM | > 100 µM | > 100 µM | > 100 |  |  |  |  |  |  |  |  | 
17 | CCOc1ccc(N/C(=C(/C(Cl)=C(/Cl)N(CC)CC)[N+](=O)[O-])n2nnc3ccccc32)cc1 | > 100 | > 100 | 25.2 | 70.4 |  | 52.8 | 29.2 µM | 41.4 µM | 49.6 µM | 28.9 |  |  |  |  |  |  |  |  | 
18 | N#CC1(C#N)NC(c2cccs2)C(C#N)(C#N)NC1c1cccs1 (stereo not given) | > 100 | 56.3 | > 100 |  | 88.4 | > 100 | > 100 µM | > 100 µM | > 100 µM | > 100 |  |  |  |  |  |  |  |  | 
19 | O=C1NC(Nc2ccccc2)=NC(C(F)(F)F)(C(F)(F)F)N1 | > 100 | > 100 | > 100 | > 100 |  | > 100 |  | > 100 µM | > 100 µM | > 100 |  |  |  |  |  |  |  |  | 
20 | O=S(=O)(c1ccc(NC2=NC(c3ccc(O)cc3)(c3ccccc3O)c3ccccc32)cc1)c1ccc(NC2=NC(c3ccc(O)cc3)(c3ccccc3O)c3ccccc32)cc1 (stereo not given) | > 100 | > 100 | > 44.6 | > 23.1 | 4.76 | 13.7 | > 100 µM | > 28 µM | > 29.9 µM |  |  |  |  |  |  |  |  |  | 
